# pIC50: −log10 of the molar value.
# Key:
# [1] = target: PDGFRβ (Rattus norvegicus, UniProt Q05030); assay: Imatinib in vivo pharmacodynamic profile; details: imatinib dose selected for the in vivo study, oral gavage
# [2] = tested on: rat SU5416/Hypoxia (SU5416/H) model of PAH; assay: SU5416/H model; format: in vivo; details: for circulating IL-10 / circulating plasma TNF-α / lung mRNA and protein levels of MCP-1: day 49, vs vehicle; for lung BMPR2: end of treatment, vs vehicle
# [3] = tested on: rat monocrotaline (MCT) model; details: cited from earlier work
# [4] = tested on: human pulmonary arterial smooth muscle cells (HPASMCs); assay: PDGF-BB-induced HPASMC proliferation assay; format: cell-based
# [5] = tested on: rat monocrotaline pneumonectomy (MCTPN) model of PAH; assay: MCTPN model; format: in vivo
# [6] = tested on: MCP-1 secretion in CSF1R+ human macrophages; assay: MCP-1/CCL2 secretion in primary human macrophages; format: cell-based; details: 24-hour incubation
# [7] = tested on: BMPR2; assay: Lung BMPR2 protein expression in healthy rats; format: in vivo, rat; details: inhaled, dose-dependent, over time (8, 16, 24 h post-dosing)
# [8] = target: c-KIT (Homo sapiens, UniProt P10721); assay: cell-based
# c-KIT (Homo sapiens, UniProt P10721), sequence (P10721 26-976): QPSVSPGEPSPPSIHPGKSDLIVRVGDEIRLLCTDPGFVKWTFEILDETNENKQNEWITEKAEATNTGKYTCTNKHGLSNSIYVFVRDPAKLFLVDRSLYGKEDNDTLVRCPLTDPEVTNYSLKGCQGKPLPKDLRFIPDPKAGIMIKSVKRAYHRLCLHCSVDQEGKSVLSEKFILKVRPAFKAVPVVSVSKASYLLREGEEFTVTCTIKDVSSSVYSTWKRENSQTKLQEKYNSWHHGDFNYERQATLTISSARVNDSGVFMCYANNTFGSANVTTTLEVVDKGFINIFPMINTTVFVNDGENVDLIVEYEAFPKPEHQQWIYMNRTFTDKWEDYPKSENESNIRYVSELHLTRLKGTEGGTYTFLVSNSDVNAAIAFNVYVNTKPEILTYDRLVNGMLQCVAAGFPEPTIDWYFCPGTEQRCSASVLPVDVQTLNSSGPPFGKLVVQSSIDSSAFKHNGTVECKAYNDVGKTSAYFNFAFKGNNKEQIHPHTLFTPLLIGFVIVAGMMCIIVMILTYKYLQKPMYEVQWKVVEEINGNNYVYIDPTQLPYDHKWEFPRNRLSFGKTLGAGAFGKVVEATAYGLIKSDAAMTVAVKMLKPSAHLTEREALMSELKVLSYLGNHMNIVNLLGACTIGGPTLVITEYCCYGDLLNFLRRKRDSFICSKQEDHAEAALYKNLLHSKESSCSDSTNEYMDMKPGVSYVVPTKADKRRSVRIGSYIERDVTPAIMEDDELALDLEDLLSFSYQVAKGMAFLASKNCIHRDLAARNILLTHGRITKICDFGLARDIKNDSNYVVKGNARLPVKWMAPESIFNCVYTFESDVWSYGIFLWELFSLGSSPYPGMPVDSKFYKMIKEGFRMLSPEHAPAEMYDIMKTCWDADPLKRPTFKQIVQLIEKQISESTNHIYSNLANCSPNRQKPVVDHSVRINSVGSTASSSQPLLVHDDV
# [9] = target: CSF1R (Homo sapiens, UniProt P07333); assay: M-CSF-induced pCSF1R in primary human macrophages
# CSF1R, sequence (P07333 20-972): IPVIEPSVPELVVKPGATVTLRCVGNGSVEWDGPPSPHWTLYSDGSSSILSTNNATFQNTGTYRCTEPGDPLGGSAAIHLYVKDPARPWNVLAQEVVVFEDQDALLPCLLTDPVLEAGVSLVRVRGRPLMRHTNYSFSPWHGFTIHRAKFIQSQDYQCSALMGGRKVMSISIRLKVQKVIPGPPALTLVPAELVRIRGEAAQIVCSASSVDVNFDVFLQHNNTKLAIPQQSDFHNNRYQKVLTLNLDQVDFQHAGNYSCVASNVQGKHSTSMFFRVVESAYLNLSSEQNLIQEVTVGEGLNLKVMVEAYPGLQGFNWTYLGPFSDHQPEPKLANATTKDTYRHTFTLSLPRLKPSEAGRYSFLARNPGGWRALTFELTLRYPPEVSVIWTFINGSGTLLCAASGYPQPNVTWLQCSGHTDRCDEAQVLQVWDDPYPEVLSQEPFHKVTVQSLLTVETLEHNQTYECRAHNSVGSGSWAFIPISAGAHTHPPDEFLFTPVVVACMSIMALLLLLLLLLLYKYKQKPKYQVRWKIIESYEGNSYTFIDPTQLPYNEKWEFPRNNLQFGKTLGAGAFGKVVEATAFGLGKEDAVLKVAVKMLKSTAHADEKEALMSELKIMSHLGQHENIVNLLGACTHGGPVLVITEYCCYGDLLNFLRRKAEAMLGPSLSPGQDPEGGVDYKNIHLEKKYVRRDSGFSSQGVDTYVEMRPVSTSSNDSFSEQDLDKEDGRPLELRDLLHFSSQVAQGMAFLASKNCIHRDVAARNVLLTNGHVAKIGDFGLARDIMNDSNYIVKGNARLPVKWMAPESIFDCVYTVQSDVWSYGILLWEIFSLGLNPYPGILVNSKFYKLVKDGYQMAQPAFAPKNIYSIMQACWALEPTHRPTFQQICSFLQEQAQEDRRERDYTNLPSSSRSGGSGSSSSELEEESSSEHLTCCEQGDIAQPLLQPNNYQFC
# [10] = tested on: rat SU5416/Hypoxia (SU5416/H) model of PAH; assay: SU5416/H model; format: in vivo; details: for RVSP end of study: 2 weeks
# [11] = target: c-KIT (Rattus norvegicus, UniProt F7EWK5); assay: Lung c-KIT phosphorylation after PDGF-BB and SCF challenge in healthy rats; format: in vivo; details: inhaled; co-administered intratracheal PDGF-BB and SCF
# c-KIT (Rattus norvegicus, UniProt F7EWK5), sequence (F7EWK5 26-978): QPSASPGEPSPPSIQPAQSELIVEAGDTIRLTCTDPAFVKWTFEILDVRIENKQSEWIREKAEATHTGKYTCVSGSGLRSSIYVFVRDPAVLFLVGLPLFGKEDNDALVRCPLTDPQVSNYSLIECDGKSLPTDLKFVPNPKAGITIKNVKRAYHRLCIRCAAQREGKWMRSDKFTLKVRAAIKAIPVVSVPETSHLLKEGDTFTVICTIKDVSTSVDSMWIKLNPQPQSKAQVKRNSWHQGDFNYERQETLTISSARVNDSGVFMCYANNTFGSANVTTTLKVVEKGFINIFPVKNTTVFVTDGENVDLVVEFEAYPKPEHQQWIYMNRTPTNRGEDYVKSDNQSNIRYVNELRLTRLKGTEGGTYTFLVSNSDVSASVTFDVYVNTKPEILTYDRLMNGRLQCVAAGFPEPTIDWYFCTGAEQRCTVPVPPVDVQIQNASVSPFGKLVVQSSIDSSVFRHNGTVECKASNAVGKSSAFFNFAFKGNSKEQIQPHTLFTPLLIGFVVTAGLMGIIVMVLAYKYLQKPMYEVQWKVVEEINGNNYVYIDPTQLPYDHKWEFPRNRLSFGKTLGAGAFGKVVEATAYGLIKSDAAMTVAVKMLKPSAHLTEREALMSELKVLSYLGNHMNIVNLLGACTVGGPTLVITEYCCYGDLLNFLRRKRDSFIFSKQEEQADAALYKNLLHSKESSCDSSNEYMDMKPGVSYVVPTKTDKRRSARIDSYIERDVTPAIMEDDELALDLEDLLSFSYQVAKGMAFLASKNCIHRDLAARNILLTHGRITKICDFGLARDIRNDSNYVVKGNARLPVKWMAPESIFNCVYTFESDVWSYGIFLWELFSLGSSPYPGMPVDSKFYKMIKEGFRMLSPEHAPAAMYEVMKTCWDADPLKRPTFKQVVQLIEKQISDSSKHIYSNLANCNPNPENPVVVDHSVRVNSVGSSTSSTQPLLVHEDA
# [12] = Inhaled seralutinib pharmacokinetics in healthy rats; details: male, Sprague Dawley, rat, lung homogenate and plasma
# [13] = 2.5 mg·kg−1 twice daily inhaled, 11 days
# [14] = 2.5 mg·kg−1 twice daily, vs vehicle
# [15] = 4.6 mg·kg−1 twice daily, vs vehicle
# PDGFRβ, sequence (Q05030 32-1097): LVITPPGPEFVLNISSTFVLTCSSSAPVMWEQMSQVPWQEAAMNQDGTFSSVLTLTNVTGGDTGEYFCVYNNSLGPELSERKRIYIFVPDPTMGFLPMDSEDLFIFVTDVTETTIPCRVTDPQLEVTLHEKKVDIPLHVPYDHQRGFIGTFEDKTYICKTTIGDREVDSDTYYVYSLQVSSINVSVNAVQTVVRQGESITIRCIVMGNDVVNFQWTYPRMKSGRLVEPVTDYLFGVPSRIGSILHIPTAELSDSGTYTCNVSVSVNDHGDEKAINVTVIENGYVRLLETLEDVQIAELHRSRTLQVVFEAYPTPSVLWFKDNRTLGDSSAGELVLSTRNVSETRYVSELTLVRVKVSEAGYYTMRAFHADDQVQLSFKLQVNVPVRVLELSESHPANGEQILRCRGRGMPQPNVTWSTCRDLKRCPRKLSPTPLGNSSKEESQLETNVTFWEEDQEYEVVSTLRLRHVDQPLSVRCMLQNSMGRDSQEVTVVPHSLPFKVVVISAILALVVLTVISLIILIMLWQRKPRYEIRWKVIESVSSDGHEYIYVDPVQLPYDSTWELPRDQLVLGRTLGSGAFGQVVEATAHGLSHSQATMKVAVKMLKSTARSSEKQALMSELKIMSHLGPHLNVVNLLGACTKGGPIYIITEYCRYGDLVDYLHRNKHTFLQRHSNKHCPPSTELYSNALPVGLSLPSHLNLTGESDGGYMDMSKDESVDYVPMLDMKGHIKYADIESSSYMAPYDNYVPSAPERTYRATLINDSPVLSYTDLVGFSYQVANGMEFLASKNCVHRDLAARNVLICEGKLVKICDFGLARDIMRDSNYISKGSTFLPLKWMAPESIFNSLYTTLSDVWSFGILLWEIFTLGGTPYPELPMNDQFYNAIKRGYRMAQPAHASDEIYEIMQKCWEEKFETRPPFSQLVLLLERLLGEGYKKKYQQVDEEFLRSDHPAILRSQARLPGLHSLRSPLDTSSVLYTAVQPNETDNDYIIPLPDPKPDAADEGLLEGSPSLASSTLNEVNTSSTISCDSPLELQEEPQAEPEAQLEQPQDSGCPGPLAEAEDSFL
compound,measurement,setting,value
"Cc1ccc(NC(=O)c2ccc(CN3CCN(C)CC3)cc2)cc1Nc1nccc(-c2cccnc2)n1 [Imatinib, reference compound]",PDGFRβ phosphorylation in healthy rats,[1],potent inhibition
same,circulating IL-10,[2],did not significantly alter
same,circulating plasma TNF-α,[2],did not significantly alter
same,lung mRNA and protein levels of MCP-1,[2],did not modulate
same,lung BMPR2,[2],no significant effect
same,effect on NT-proBNP,"[2]; imatinib 15.0 mg·kg−1 once daily oral, day 49",no significant effect
same,pulmonary hypertension in rat MCT model,[3],reversed pulmonary hypertension
same,potency less than seralutinib,[4]; human PASMC and HLF proliferation assays,13–20 fold
"COc1ccc(-c2cncc(N[C@@H](C)c3cccc(NC(=O)c4cncc(C)c4)c3)n2)cc1OC [Seralutinib, N-[3-[(1S)-1-[[6-(3,4-dimethoxyphenyl)pyrazin-2-yl]amino]ethyl]phenyl]-5-methylpyridine-3-carboxamide]",decrease of NT-proBNP versus vehicle control,"[2]; 12.8 mg·kg−1 twice daily inhaled, day 49",55%
same,small pulmonary artery muscularisation,[2]; compared to both the vehicle and imatinib-treated groups,decrease
same,SMAD1/5 phosphorylation in lung,[2]; day 49,increase
same,circulating PDGF-BB,[2]; day 49,trend towards decreased
same,circulating IL-10,[2],increased
same,circulating plasma TNF-α,[2],decreased
same,lung mRNA and protein levels of MCP-1,[2],decreased
same,effect on stroke volume index and cardiac index compared to imatinib,"[2]; echocardiography, day 49",significantly greater effect
same,lung BMPR2,[2],significantly increased
same,reduction in RVSP compared to vehicle,[5]; [13],50%
same,reduction of right ventricular hypertrophy compared to vehicle,[5]; [13],49%
same,PASP lower compared to vehicle,"[5]; 2.5 mg·kg−1 twice daily inhaled, day 9",34%
same,PASP lower compared to vehicle,"[5]; 2.5 mg·kg−1 twice daily inhaled, day 10",37%
same,PASP lower compared to vehicle,"[5]; 2.5 mg·kg−1 twice daily inhaled, day 11",41%
same,lumen-to-media area,"[5]; 2.5 mg·kg−1 twice daily, vs controls",increased
same,grade 1 and 2 lesions,[5]; [14],fewer
same,perivascular fibrosis,[5]; [14],qualitative decrease
same,airway resistance,[5]; vs vehicle,similar
same,minute ventilation,[5]; vs vehicle,similar
same,respiratory rate,[5]; vs vehicle,decreased
same,tidal volume,[5]; vs vehicle,significantly improved
same,MCP-1 secretion,[6],reduced MCP-1 secretion in a dose-dependent manner
same,increase in lung BMPR2 protein expression,[7],2-to-2.5 fold
same,pIC50,[8],8.11
same,greater potency at inhibiting proliferation compared to imatinib,[4]; human PASMCs and HLFs,13- to 20 fold
same,pIC50,[9],7.84
same,"more potent than imatinib, pCSF1R",[9]; M-CSF-induced phosphorylation of CSF1R in human primary differentiated macrophages,34 fold
same,RVSP end of study,[10]; 2.5 mg·kg−1 twice daily inhaled,49.6±3.1 mmHg
same,reduction of PASP relative to vehicle,"[10]; 2.5 mg·kg−1 twice daily inhaled, end of 2-week treatment, telemetry",43%
same,RVSP end of study,[10]; 4.6 mg·kg−1 twice daily inhaled,34.7±2.2 mmHg
same,lung phospho-PDGFRβ IHC,[10]; [15],reduced intensity
same,number of grade 2 lesions (small pulmonary artery occlusion),[10]; [15],significant decrease
same,small pulmonary artery lumen-to-media area,[10]; [15],increased
same,inhibition of c-KIT Y719 phosphorylation in lung,[11],43%
same,Kp,[12],30
